Source: ChEMBL document CHEMBL3885881, “DrugMatrix”

Species: Rattus norvegicus
Assay: DrugMatrix - Regimen: Daily Repeat
Type: toxicity, organism-based, Sprague-Dawley
Design: regimen Daily Repeat, gender Male, age 6-8 weeks
Settings: in vivo, po, 0 mg/kg, route oral GAVAGE, dose level Control, vehicle .5 % CMC; for ABSOLUTE BASOPHIL / ABSOLUTE EOSINOPHIL / ABSOLUTE LYMPHOCYTE / ABSOLUTE MONOCYTE / ABSOLUTE SEGMENTED NEUTROPHIL / BASOPHIL / EOSINOPHIL / ERYTHROCYTE COUNT / HEMATOCRIT / HEMOGLOBIN / LEUKOCYTE COUNT / LYMPHOCYTE / MEAN CORPUSCULAR HEMOGLOBIN / MEAN CORPUSCULAR HEMOGLOBIN CONCENTRATION / MEAN CORPUSCULAR VOLUME / MONOCYTE / NEUTROPHIL / NUCLEATED RED BLOOD CELLS / PLATELET COUNT: tissue Blood; for ALANINE AMINOTRANSFERASE / ALBUMIN / ALKALINE PHOSPHATASE / ASPARTATE AMINOTRANSFERASE / BLOOD UREA NITROGEN / CARBON DIOXIDE / CHLORIDE / CHOLESTEROL / CREATINE PHOSPHOKINASE / CREATININE / GLUCOSE / LACTATE DEHYDROGENASE / LIPASE / PHOSPHORUS / POTASSIUM / SODIUM / TOTAL BILIRUBIN / TOTAL PROTEIN / URIC ACID: tissue Plasma

CCCCC1C(=O)N(c2ccccc2)N(c2ccccc2)C1=O [PHENYLBUTAZONE]
ABSOLUTE BASOPHIL (72 h, time 3 day): 0 CELLS/uL
ABSOLUTE EOSINOPHIL (72 h, time 3 day): 35.67 CELLS/uL
ABSOLUTE LYMPHOCYTE (72 h, time 3 day): 9125.17 CELLS/uL
ABSOLUTE MONOCYTE (72 h, time 3 day): 50.17 CELLS/uL
ABSOLUTE SEGMENTED NEUTROPHIL (72 h, time 3 day): 722.33 CELLS/uL
BASOPHIL (72 h, time 3 day): 0%
EOSINOPHIL (72 h, time 3 day): 0.33%
ERYTHROCYTE COUNT (72 h, time 3 day): 5.35 x10E6/uL
HEMATOCRIT (72 h, time 3 day): 33.58%
HEMOGLOBIN (72 h, time 3 day): 13.35 G/DL
LEUKOCYTE COUNT (72 h, time 3 day): 9.93 x10E3/uL
LYMPHOCYTE (72 h, time 3 day): 91.67%
MEAN CORPUSCULAR HEMOGLOBIN (72 h, time 3 day): 25 pg
MEAN CORPUSCULAR HEMOGLOBIN CONCENTRATION (72 h, time 3 day): 39.8 G/DL
MEAN CORPUSCULAR VOLUME (72 h, time 3 day): 62.77 fL
MONOCYTE (72 h, time 3 day): 0.67%
NEUTROPHIL (72 h, time 3 day): 7.33%
NUCLEATED RED BLOOD CELLS (72 h, time 3 day): 0 /100WBC
PLATELET COUNT (72 h, time 3 day): 866.17 x10E3/uL
ALANINE AMINOTRANSFERASE (72 h, time 3 day): 57.17 u/L
ALBUMIN (72 h, time 3 day): 4.22 G/DL
ALKALINE PHOSPHATASE (72 h, time 3 day): 391 u/L
ASPARTATE AMINOTRANSFERASE (72 h, time 3 day): 95.17 u/L
BLOOD UREA NITROGEN (72 h, time 3 day): 13.67 mg/dL
CARBON DIOXIDE (72 h, time 3 day): 30 mmol/L
CHLORIDE (72 h, time 3 day): 102.5 MEQ/L
CHOLESTEROL (72 h, time 3 day): 72 mg/dL
CREATINE PHOSPHOKINASE (72 h, time 3 day): 485.67 u/L
CREATININE (72 h, time 3 day): 0.27 mg/dL
GLUCOSE (72 h, time 3 day): 152 mg/dL
LACTATE DEHYDROGENASE (72 h, time 3 day): 372.67 u/L
LIPASE (72 h, time 3 day): 9.83 u/L
PHOSPHORUS (72 h, time 3 day): 12.47 mg/dL
POTASSIUM (72 h, time 3 day): 6.81 MEQ/L
SODIUM (72 h, time 3 day): 144.1 MEQ/L
TOTAL BILIRUBIN (72 h, time 3 day): 0.23 mg/dL
TOTAL PROTEIN (72 h, time 3 day): 5.93 G/DL
URIC ACID (72 h, time 3 day): 1.9 mg/dL
ABSOLUTE BASOPHIL (120 h, time 5 day): 0 CELLS/uL
ABSOLUTE EOSINOPHIL (120 h, time 5 day): 67.33 CELLS/uL
ABSOLUTE LYMPHOCYTE (120 h, time 5 day): 11419.17 CELLS/uL
ABSOLUTE MONOCYTE (120 h, time 5 day): 203.17 CELLS/uL
ABSOLUTE SEGMENTED NEUTROPHIL (120 h, time 5 day): 1327 CELLS/uL
BASOPHIL (120 h, time 5 day): 0%
EOSINOPHIL (120 h, time 5 day): 0.5%
ERYTHROCYTE COUNT (120 h, time 5 day): 5.65 x10E6/uL
HEMATOCRIT (120 h, time 5 day): 35.3%
HEMOGLOBIN (120 h, time 5 day): 13.98 G/DL
LEUKOCYTE COUNT (120 h, time 5 day): 13.02 x10E3/uL
LYMPHOCYTE (120 h, time 5 day): 88%
MEAN CORPUSCULAR HEMOGLOBIN (120 h, time 5 day): 24.78 pg
MEAN CORPUSCULAR HEMOGLOBIN CONCENTRATION (120 h, time 5 day): 39.63 G/DL
MEAN CORPUSCULAR VOLUME (120 h, time 5 day): 62.58 fL
MONOCYTE (120 h, time 5 day): 1.33%
NEUTROPHIL (120 h, time 5 day): 10.17%
NUCLEATED RED BLOOD CELLS (120 h, time 5 day): 0 /100WBC
PLATELET COUNT (120 h, time 5 day): 1213.83 x10E3/uL
ALANINE AMINOTRANSFERASE (120 h, time 5 day): 49.67 u/L
ALBUMIN (120 h, time 5 day): 4.28 G/DL
ALKALINE PHOSPHATASE (120 h, time 5 day): 362.33 u/L
ASPARTATE AMINOTRANSFERASE (120 h, time 5 day): 99 u/L
BLOOD UREA NITROGEN (120 h, time 5 day): 20.67 mg/dL
CARBON DIOXIDE (120 h, time 5 day): 26.33 mmol/L
CHLORIDE (120 h, time 5 day): 102 MEQ/L
CHOLESTEROL (120 h, time 5 day): 63.83 mg/dL
CREATINE PHOSPHOKINASE (120 h, time 5 day): 481.83 u/L
CREATININE (120 h, time 5 day): 0.21 mg/dL
GLUCOSE (120 h, time 5 day): 158 mg/dL
LACTATE DEHYDROGENASE (120 h, time 5 day): 656.33 u/L
LIPASE (120 h, time 5 day): 10.67 u/L
PHOSPHORUS (120 h, time 5 day): 12.27 mg/dL
POTASSIUM (120 h, time 5 day): 6.17 MEQ/L
SODIUM (120 h, time 5 day): 143.35 MEQ/L
TOTAL BILIRUBIN (120 h, time 5 day): 0.17 mg/dL
TOTAL PROTEIN (120 h, time 5 day): 6.13 G/DL
URIC ACID (120 h, time 5 day): 1.48 mg/dL
